Legend:
[1] = test system: Sphaerotheca fuliginea; experiment: In vivo preventive test on Sphaerotheca fuliginea (powdery mildew on cucurbits), Examples F and R6; details: Podosphaera fuliginea, 360 h; 500 ppm of active ingredient; gherkin, preventive spray, evaluated 15 days after inoculation; read-out: efficacy
[2] = test system: Septoria tritici; experiment: In vivo preventive test on Septoria tritici (leaf spot on wheat), Examples E, Q3 and R5; details: Zymoseptoria tritici, 576 h, 500 ppm of active ingredient; wheat, preventive spray, evaluated 24 days after inoculation; read-out: efficacy
[3] = test system: Fusarium graminearum; experiment: whole plant or invertebrate; type: in vivo; details: in Hordeum vulgare, 120 h, read-out: efficacy
[4] = test system: Venturia inaequalis; experiment: In vivo preventive Venturia test (apples), Example J; details: 240 h, read-out: efficacy
Method: After the spray coating has dried on, the plants are inoculated with an aqueous conidia suspension of the causal agent of apple scab (Venturia inaequalis) and then remain for 1 day in an incubation cabinet at approximately 20° C. and a relative atmospheric humidity of 100%.
The plants are then placed in a greenhouse at approximately 21° C. and a relative atmospheric humidity of approximately 90%.
The test is evaluated 10 days after the inoculation.

[5] = test system: Uromyces appendiculatus; experiment: In vivo preventive test on Uromyces appendiculatus (bean rust), Examples G and R7; details: 264 h, 500 ppm of active ingredient, bean, preventive spray, evaluated 11 days after inoculation, read-out: efficacy
[6] = test system: Blumeria graminis fsp. hordei; experiment: In vivo preventive Blumeria test (barley), Example K; details: 168 h, 500 ppm of active ingredient, preventive spray, evaluated 7 days after inoculation, read-out: efficacy
Source text: After the spray coating has been dried, the plants are dusted with spores of Blumeria graminis fsp. hordei.

[7] = test system: Fusarium culmorum; experiment: In vivo preventive Fusarium culmorum test (wheat), Example L; details: 120 h, 500 ppm of active ingredient, preventive spray, evaluated 5 days after inoculation, read-out: efficacy
Method: After the spray coating has been dried, the plants are slightly injured by using a sandblast and afterwards they are sprayed with a conidia suspension of Fusarium culmorum.
The test is evaluated 5 days after the inoculation.

[8] = test system: Phakopsora pachyrhizi; experiment: In vivo preventive Phakopsora test (soybeans), Example I; details: 168 h, 100 ppm of active ingredient, preventive spray, evaluated 7 days after inoculation, read-out: efficacy
[9] = test system: Pyricularia oryzae; experiment: whole plant or invertebrate; type: in vivo; details: 192 h, read-out: efficacy
[10] = test system: Pyrenophora teres; experiment: In vivo preventive test on Pyrenophora teres (net blotch on barley), Examples D, Q2 and R4; details: Pyrenophora teres, 336 h, 500 ppm of active ingredient, preventive spray, evaluated 14 days after inoculation, read-out: efficacy
[11] = test system: Alternaria solani; experiment: In vivo preventive Alternaria test (tomatoes), Example H; details: 72 h, 100 ppm of active ingredient, preventive spray, evaluated 3 days after inoculation, read-out: efficacy
[12] = Measurement of LogP values by HPLC on reversed phase columns (EEC directive 79/831 Annex V.A8); type: physicochemical; details: method [a]: LC-UV, acidic range, 0.1% formic acid in water and acetonitrile as eluent; Table 1
Method: Measurement of Log P values was performed as outlined above.

[13] = test system: Puccinia recondita; experiment: In vivo preventive test on Puccinia recondita (brown rust on wheat), Examples C and R3; details: Puccinia recondita, 264 h; 500 ppm of active ingredient; wheat, preventive spray, evaluated 11 days after inoculation; read-out: efficacy
[14] = test system: Fusarium nivale (var. majus); experiment: In vivo preventive Fusarium nivale (var. majus) test (wheat), Example O; details: Microdochium nivale, 120 h, 500 ppm of active ingredient, preventive spray, evaluated 5 days after inoculation, read-out: efficacy
Source text: After the spray coating has been dried, the plants are slightly injured by using a sandblast and afterwards they are sprayed with a conidia suspension of Fusarium nivale (var. majus).

[15] = test system: Leptosphaeria nodorum; experiment: In vivo preventive Leptosphaeria nodorum test (wheat), Example N; details: Parastagonospora nodorum, 192 h, 500 ppm of active ingredient, preventive spray, evaluated 8 days after inoculation, read-out: efficacy
Source text: After the spray coating has been dried, the plants are sprayed with a spore suspension of Leptosphaeria nodorum.

[16] = test system: Alternaria brassicae; experiment: In vivo preventive test on Alternaria brassicae (leaf spot on radish), Examples A and R1; details: Alternaria brassicae, 144 h, 500 ppm of active ingredient, preventive spray, evaluated 6 days after inoculation, read-out: efficacy
[17] = test system: Botrytis cinerea; experiment: In vivo preventive test on Botrytis cinerea (grey mould) on gherkin, Examples B, Q1 and R2; details: Botrytis cinerea, 500 ppm of active ingredient, preventive spray, evaluated 4 to 5 days after inoculation, read-out: efficacy

`N#Cc1cncn1CC(O)(Cc1ccc(F)cc1F)C1(F)CC1` (centres unmarked) [Example I-97] gave a pest or weed control at 500 ppm [1] of 90 to 100%, a pest or weed control at 500 ppm [2] of 90 to 100% and a pest or weed control at 500 ppm [3] of 90 to 100%. The pest or weed control at 100 ppm [4] was 80 to 89%, the pest or weed control at 500 ppm [5] was 90 to 100% and the pest or weed control at 500 ppm [6] was 90 to 100%. For the same compound, the pest or weed control at 500 ppm [7] was 90 to 100%, the pest or weed control at 100 ppm [8] was 90 to 100% and the pest or weed control at 500 ppm [9] was 70 to 79%. It also gave a pest or weed control at 500 ppm [10] of 80 to 89%, a pest or weed control at 100 ppm [11] of 80 to 89% and a chromatographic logP [12] of 2.39. It also gave a pest or weed control at 500 ppm [13] of 90 to 100% and a pest or weed control at 500 ppm [14] of 90 to 100%.
In the case of `N#Cc1cncn1CC(O)(Cc1ccccc1F)C1(F)CC1` (centres unmarked) [Example I-99], the pest or weed control at 500 ppm [1] is reported as 90 to 100%, the pest or weed control at 500 ppm [15] is reported as 90 to 100% and the pest or weed control at 500 ppm [2] is reported as 90 to 100%. For the same compound, the pest or weed control at 500 ppm [3] was 90 to 100%, the pest or weed control at 100 ppm [4] was 80 to 89% and the pest or weed control at 500 ppm [5] was 90 to 100%. For the same compound, the pest or weed control at 500 ppm [16] was 80 to 89%, the pest or weed control at 500 ppm [6] was 90 to 100% and the pest or weed control at 100 ppm [8] was 90 to 100%. It also gave a pest or weed control at 500 ppm [9] of 80 to 89%, a pest or weed control at 500 ppm [10] of 90 to 100% and a pest or weed control at 100 ppm [11] of 90 to 100%. The pest or weed control at 500 ppm [17] was 90 to 100%, the chromatographic logP [12] was 2.01 and the pest or weed control at 500 ppm [13] was 90 to 100%. For the same compound, the pest or weed control at 500 ppm [14] was 90 to 100%.
Work on `N#Cc1cncn1CC(O)(Cc1ccc(F)cc1F)C1(Cl)CC1` (centres unmarked) [Example I-125] yielded a pest or weed control at 500 ppm [1] of 90 to 100%, a pest or weed control at 500 ppm [15] of 80 to 89% and a pest or weed control at 500 ppm [2] of 90 to 100%. For the same compound, the pest or weed control at 500 ppm [3] was 90 to 100%, the pest or weed control at 100 ppm [4] was 90 to 100% and the pest or weed control at 500 ppm [5] was 90 to 100%. For the same compound, the pest or weed control at 500 ppm [6] was 90 to 100%, the pest or weed control at 100 ppm [8] was 90 to 100% and the pest or weed control at 500 ppm [9] was 80 to 89%. The pest or weed control at 100 ppm [11] was 90 to 100%, the pest or weed control at 500 ppm [17] was 80 to 89% and the chromatographic logP [12] was 2.78. For the same compound, the pest or weed control at 500 ppm [13] was 90 to 100% and the pest or weed control at 500 ppm [14] was 90 to 100%.
`N#Cc1cncn1CC(O)(Cc1cccc(F)c1F)C1(Cl)CC1` (centres unmarked) [Example I-146] gave a pest or weed control at 500 ppm [1] of 90 to 100%, a pest or weed control at 500 ppm [15] of 90 to 100% and a pest or weed control at 500 ppm [2] of 90 to 100%. For the same compound, the pest or weed control at 500 ppm [3] was 90 to 100%, the pest or weed control at 100 ppm [4] was 90 to 100% and the pest or weed control at 500 ppm [5] was 90 to 100%. For the same compound, the pest or weed control at 500 ppm [6] was 90 to 100%, the pest or weed control at 100 ppm [8] was 90 to 100% and the pest or weed control at 500 ppm [9] was 70 to 79%. The pest or weed control at 500 ppm [10] was 90 to 100%, the pest or weed control at 100 ppm [11] was 90 to 100% and the pest or weed control at 500 ppm [17] was 90 to 100%. The chromatographic logP [12] was 2.75, the pest or weed control at 500 ppm [13] was 90 to 100% and the pest or weed control at 500 ppm [14] was 90 to 100%.
In the case of `OC(Cc1cccc(F)c1F)(Cn1cncc1Cl)C1(Cl)CC1` (centres unmarked) [Example I-147], the pest or weed control at 500 ppm [1] is reported as 90 to 100%, the pest or weed control at 500 ppm [15] is reported as 90 to 100% and the pest or weed control at 500 ppm [2] is reported as 90 to 100%. The pest or weed control at 500 ppm [3] was 90 to 100%, the pest or weed control at 100 ppm [4] was 90 to 100% and the pest or weed control at 500 ppm [5] was 90 to 100%. For the same compound, the pest or weed control at 500 ppm [6] was 90 to 100%, the pest or weed control at 100 ppm [8] was 90 to 100% and the pest or weed control at 500 ppm [9] was 80 to 89%. For the same compound, the pest or weed control at 500 ppm [10] was 90 to 100%, the pest or weed control at 100 ppm [11] was 90 to 100% and the pest or weed control at 500 ppm [17] was 90 to 100%. The chromatographic logP [12] was 2.17, the pest or weed control at 500 ppm [13] was 90 to 100% and the pest or weed control at 500 ppm [14] was 90 to 100%.
